Consider seven compounds from patent publication US20250313547A1, “CEREBLON LIGANDS AND BIFUNCTIONAL COMPOUNDS COMPRISING THE SAME” (Arvinas Operations, Inc., priority 2017, published 2025).

Structures are written as SMILES. Where only a bound is given, the exact number is not on record here.

For experiment [1], the target named is Estrogen receptor-alpha (ERα) (Homo sapiens (Human), UniProt P03372). Description: ERα degradation assay in T47D cells. The experiment is classed as cell-based. The settings on record: 5 day incubation, read-out: ER degradation DC50.
Chain of Estrogen receptor-alpha (ERα) (P03372 whole entry): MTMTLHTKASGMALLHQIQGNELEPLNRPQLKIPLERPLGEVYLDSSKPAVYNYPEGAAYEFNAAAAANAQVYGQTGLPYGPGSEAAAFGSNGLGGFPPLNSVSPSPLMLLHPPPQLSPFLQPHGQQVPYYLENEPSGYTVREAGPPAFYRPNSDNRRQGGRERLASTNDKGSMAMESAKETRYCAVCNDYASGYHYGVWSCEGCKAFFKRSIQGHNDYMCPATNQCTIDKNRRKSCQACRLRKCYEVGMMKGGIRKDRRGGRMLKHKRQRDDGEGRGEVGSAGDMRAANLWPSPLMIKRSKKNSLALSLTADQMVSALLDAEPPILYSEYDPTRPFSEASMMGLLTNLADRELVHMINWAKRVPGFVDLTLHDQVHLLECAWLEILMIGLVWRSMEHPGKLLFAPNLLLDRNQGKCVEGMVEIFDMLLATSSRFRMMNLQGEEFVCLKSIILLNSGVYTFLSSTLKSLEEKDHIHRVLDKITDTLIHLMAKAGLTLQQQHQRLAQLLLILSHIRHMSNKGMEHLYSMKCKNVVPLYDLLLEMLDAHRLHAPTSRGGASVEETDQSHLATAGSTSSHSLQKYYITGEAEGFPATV
In another experiment the test system is c-myc. Put plainly: BRD4 human c-Myc ELISA assay in 22RV-1 cells. The experiment is classed as cell-based. The conditions noted are these: 18 hours. The protocol: 6. BRD4 Human c-Myc ELISA Assay Protocol
22RV-1 cells were seeded at 30,000 cells/well at a volume of 75 µL/well in RPMI with 10% FBS media in 96-well plates and grown overnight at 37° C. Cells were dosed with compounds at 4× concentration diluted in 0.4% DMSO; compounds were serially diluted 1:3 for 8-point dose curve. Twenty-five (25) ul of the compounds was added to cells for a final concentration starting at 300 nM-0.3 nM or 1 uM-1 nM in 0.1% DMSO and incubated for 18 hours. Media was aspirated, cells were washed 1×with PBS and aspirated. Cells were lysed in 50 ul RIPA buffer (50 mM Tris pH8, 150 mM NaCl, 1% Tx-100, 0.1% SDS, 0.5% sodium deoxycholate) supplemented with protease and phosphatase inhibitors. Plates were incubated on ice for 15 minutes then centrifuged at 4° C. for 10 minutes at 4000 rpm. Fifty (50) ul of cleared lysate from a 96-well assay plate was added into 96-well c-myc ELISA plate (Novex, Life Technologies Catalog #KH02041). c-myc standard was reconstituted with standard diluent buffer; standard curve range of 333 pg/ml-0 pg/ml was prepared, diluted 1:2 for 8-point dose curve. The rest of the assay was performed following the protocol from the c-myc ELISA kit. Data was analyzed and plotted using GraphPad Prism software.

A further experiment deals with tau protein. Put plainly: Tau protein in vitro degradation assay in SK-N-SH cells (Western blot). The settings on record: % degraded, 72-hour incubation. The format is cell-based, human. The protocol:
10. Tau Protein In Vitro Degradation Assay
To determine effect of PROTACs on tau protein degradation SK-N-SH cells were seeded in a 24-well tissue culture-treated plate for at least 18-hours prior to compound addition. Tau PROTACs were evaluated for tau degradation by lysing the cells in RIPA buffer with protease inhibitors following a 72-hour incubation with tau PROTACs. Cell lysates were run on standard SDS-PAGE gels, and tau levels were detected by Western blotting using Tau-13 antibody from Abcam (Cambridge, UK) that binds to all forms of human tau.

In the case of `O=C1CCC(N2CC(Oc3cccc(C4CCN(CCCCOc5ccc([C@H]6c7ccc(O)cc7CC[C@H]6c6ccccc6)cc5)CC4)c3)=CC2=O)C(=O)N1` (mixture of isomers) [PROTAC-109, rac-3-(4-(3-(1-(4-(4-((1R,2S)-6-hydroxy-2-phenyl-1,2,3,4-tetrahydronaphthalen-1-yl)phenoxy)butyl)piperidin-4-yl)phenoxy)-2-oxo-2,5-dihydro-1H-pyrrol-1-yl)piperidine-2,6-dione], the 50% degradation concentration (DC50) in experiment [1] is ≥ 100 nM.

In the case of `Cc1sc2c(c1C)C(c1ccc(Cl)cc1)=NC(CC(=O)NCCCOCCCOc1ccc3ncc(-n4ccc(=O)[nH]c4=O)cc3c1)c1nnc(C)n1-2` (stereo not shown) [PROTAC-1, 2-(4-(4-chlorophenyl)-2,3,9-trimethyl-6H-thieno[3,2-f][1,2,4]triazolo[4,3-a][1,4]diazepin-6-yl)-N-(3-(3-((3-(2,4-dioxo-3,4-dihydropyrimidin-1(2H)-yl)quinolin-6-yl)oxy)propoxy)propyl)acetamide], the “IMax Myc” value in the experiment on c-myc is on record as 40C (C <= 50).

As to `Cn1c2ccncc2c2ccc(-c3ccc(OCCOCCOCCOCCOCCN4CCC5(CC4)CC(=O)N(C4CCC(=O)NC4=O)C5=O)nc3)cc21` (stereo not shown) [PROTAC-112, 2-(2,6-dioxopiperidin-3-yl)-8-(14-((5-(5-methyl-5H-pyrido[4,3-b]indol-7-yl)pyridin-2-yl)oxy)-3,6,9,12-tetraoxatetradecyl)-2,8-diazaspiro[4.5]decane-1,3-dione], in the experiment with tau protein, the “Tau degradation % DMax” value is recorded as “C (C <= 50)”.

For `O=C1CCC(N2CC(Oc3cccc(C4CCN(CCCOc5ccc([C@H]6c7ccc(O)cc7CC[C@H]6c6ccccc6)cc5)CC4)c3)=CC2=O)C(=O)N1` (mixture of isomers) [PROTAC-105, rac-3-(4-(3-(1-(3-(4-((1R,2S)-6-hydroxy-2-phenyl-1,2,3,4-tetrahydronaphthalen-1-yl)phenoxy)propyl)piperidin-4-yl)phenoxy)-2-oxo-2,5-dihydro-1H-pyrrol-1-yl)piperidine-2,6-dione], in experiment [1], the 50% degradation concentration (DC50) is ≥ 100 nM.

As for `O=C1CCC(N2CC(Oc3cccc(C4CCN(CCCOc5ccc([C@@H]6c7ccc(O)cc7CC[C@@H]6c6ccccc6)cc5)CC4)c3)=CC2=O)C(=O)N1` (stereo partly drawn) [PROTAC-106, 3-(4-(3-(1-(3-(4-((1R,2S)-6-hydroxy-2-phenyl-1,2,3,4-tetrahydronaphthalen-1-yl)phenoxy)propyl)piperidin-4-yl)phenoxy)-2-oxo-2,5-dihydro-1H-pyrrol-1-yl)piperidine-2,6-dione], the DC50 in experiment [1] is 1 to 10 nM.

As to `CCN(C(=O)c1ccc(N2CCN(CCCCCOc3ccc([C@@H]4c5ccc(O)cc5CC[C@@H]4c4ccccc4)cc3)CC2)cc1OC)C1CCC(=O)NC1=O` (mixture of isomers) [PROTAC-92, rac-N-(2,6-dioxopiperidin-3-yl)-N-ethyl-4-(4-(5-(4-((1R,2S)-6-hydroxy-2-phenyl-1,2,3,4-tetrahydronaphthalen-1-yl)phenoxy)pentyl)piperazin-1-yl)-2-methoxybenzamide], the 50% degradation concentration (DC50) in experiment [1] is ≥ 100 nM.

In the case of `O=C1CCC(N2CC(Oc3cccc(C4CCN(CCCCOc5ccc([C@@H]6c7ccc(O)cc7CC[C@@H]6c6ccccc6)cc5)CC4)c3)=CC2=O)C(=O)N1` (mixture of isomers) [PROTAC-104, rac-3-(4-(3-(1-(4-(4-((1R,2S)-6-hydroxy-2-phenyl-1,2,3,4-tetrahydronaphthalen-1-yl)phenoxy)butyl)piperidin-4-yl)phenoxy)-2-oxo-2,5-dihydro-1H-pyrrol-1-yl)piperidine-2,6-dione], in experiment [1], the half-maximal degradation concentration (DC50) is ≥ 100 nM.
